Among the test systems are BT-549 breast; IGROV1 ovarian; KM12 colon; MCF7 breast; MOLT-4 leukemia; NCI-H23 lung; NCI-H460 lung; NCI-H522 lung; OVCAR-8 ovarian; TK-10 renal; UACC-257 melanoma; UO-31 renal; HL-60(TB) leukemia; K-562 leukemia.
Holding throughout (assay): growth of human tumour cells (NCI), 48 h

Where “and” joins values, the source holds several entries; their conditions need not be identical. Equal values may be shown once.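 Five compound concentrations were applied to cells in 96-well plates for 48 hours; endpoints were derived by simple linear interpolation of the resulting dose-response curve. Abbreviation: GI50, concentration required for 50% inhibition of growth. At the TGI there is no net growth.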 Where a SMILES comes first, the peptide text is derived from it. The star is where a group is joined. Cbz = O=C(OCc1ccccc1)*; Boc = CC(C)(C)OC(=O)*; OSu = O=C1CCC(=O)N1O*; Bn = c1ccc(C*)cc1

For `CC(C)(C)OC(=O)NC(Cc1ccc(OCc2ccccc2)cc1)C(=O)NC(CCCCNC(=O)OCc1ccccc1)C(=O)NC(CCCCNC(=O)OCc1ccccc1)C(=O)ON1C(=O)CCC1=O` (stereo not given) (Boc-Tyr(Bn)-Lys(Cbz)-Lys(Cbz)-OSu; configuration not given here), the TGI in the test on BT-549 breast was 33.2 µM; in the test on IGROV1 ovarian it was > 100 µM; in the test on KM12 colon it was > 100 µM; in the test on MCF7 breast, 39.3 µM; in the test on MOLT-4 leukemia, > 100 µM; in the test on NCI-H23 lung, > 100 µM. Besides, the TGI in the test on NCI-H460 lung is > 100 µM; in the test on NCI-H522 lung, 39.7 µM; with OVCAR-8 ovarian, 94.8 µM; in the test with TK-10 renal it was > 100 µM; in the test on UACC-257 melanoma, > 100 µM; in the test with UO-31 renal, > 100 µM.
Consider `Clc1cc2ncn(C3CCCCO3)c2cc1Cl` (stereo not given), for which the TGI in the test on BT-549 breast was 84.5 µM; in the test on HL-60(TB) leukemia it was > 100 µM; in the test with IGROV1 ovarian, > 100 µM; in the test on K-562 leukemia it was > 100 µM; in the test with KM12 colon it was > 100 µM; in the test on MCF7 breast it was > 100 µM. For the same compound, the TGI with MOLT-4 leukemia was > 100 µM; with NCI-H23 lung, > 100 µM; with NCI-H522 lung, 59.2 µM; in the test on OVCAR-8 ovarian, > 100 µM; in the test with UO-31 renal it was 49.8 µM.
Turning to `COC1OC(C(=O)O)C2OC(C)(C)OC12` (stereo not given), the TGI with BT-549 breast, in the test on IGROV1 ovarian, with K-562 leukemia, with KM12 colon, in the test with MCF7 breast and with MOLT-4 leukemia was > 100 µM throughout. For the same compound, the TGI in the test with NCI-H23 lung, in the test on NCI-H460 lung, in the test with NCI-H522 lung, in the test with OVCAR-8 ovarian, in the test with TK-10 renal and in the test on UACC-257 melanoma was > 100 µM each time. Further, the TGI in the test with UO-31 renal was > 100 µM.
Take `CC(C)=CCCC1(C)C2COC(=O)C21` (stereo not given): the TGI in the test on BT-549 breast is > 100 µM; with HL-60(TB) leukemia, > 100 µM and 40.9 µM; in the test with IGROV1 ovarian, > 100 µM; with K-562 leukemia, > 100 µM and 27.4 µM; in the test with KM12 colon, > 100 µM; in the test with MCF7 breast it was > 100 µM. Moreover, the TGI in the test on NCI-H23 lung was > 100 µM and 60.1 µM; in the test with NCI-H460 lung it was > 100 µM and 34.1 µM; in the test on NCI-H522 lung it was > 100 µM; in the test on TK-10 renal, > 100 µM; in the test with UACC-257 melanoma it was > 100 µM; in the test on UO-31 renal, > 100 µM. Moreover, the GI50 is 43.3 µM and 18.8 µM in the test with HL-60(TB) leukemia; > 100 µM and 42.1 µM with KM12 colon; > 100 µM and 26.7 µM in the test with NCI-H23 lung; > 100 µM and 19.3 µM in the test with NCI-H460 lung; > 100 µM and 47.2 µM in the test with NCI-H522 lung.
Turning to `C[n+]1c2ccccc2c(C(=O)Nc2ccc(S(=O)(=O)Nc3ncccn3)cc2)c2ccccc21`, the TGI in the test with BT-549 breast, with IGROV1 ovarian, in the test on K-562 leukemia, in the test on KM12 colon, in the test on MCF7 breast and in the test with MOLT-4 leukemia was > 100 µM each time. In addition, the TGI in the test with NCI-H23 lung, in the test with NCI-H460 lung, in the test on OVCAR-8 ovarian, in the test with TK-10 renal, in the test on UACC-257 melanoma and in the test on UO-31 renal was > 100 µM each time.
For the compound `CSc1nc[nH]c1C(N)=S`, the TGI in the test on BT-549 breast, with HL-60(TB) leukemia, in the test on IGROV1 ovarian, in the test on KM12 colon, in the test with MCF7 breast and in the test with MOLT-4 leukemia was > 100 µM throughout. In addition, the TGI in the test with NCI-H23 lung, in the test on NCI-H522 lung, in the test on OVCAR-8 ovarian, with TK-10 renal, in the test with UACC-257 melanoma and in the test on UO-31 renal was > 100 µM in each case.
Regarding `Cc1cc(C)n2c(nc3ccccc32)c1C#N`, the TGI in the test on BT-549 breast, with HL-60(TB) leukemia, in the test on IGROV1 ovarian, in the test with K-562 leukemia, with MCF7 breast and in the test on MOLT-4 leukemia was > 100 µM each time. The TGI in the test on NCI-H23 lung, with OVCAR-8 ovarian, in the test on TK-10 renal, with UACC-257 melanoma and in the test on UO-31 renal was > 100 µM each time.
Take `CCCCCCCCCCCCC1N=C(N)NC2(CCCO2)C1C(=O)OC` (stereo not given): the TGI worked out at 18.5 µM with BT-549 breast; 6.72 µM with IGROV1 ovarian; 5.25 µM in the test with K-562 leukemia; 3.34 µM in the test on KM12 colon; 9.2 µM with MCF7 breast; 5.3 µM in the test with MOLT-4 leukemia. Moreover, the TGI in the test on NCI-H23 lung came out at 18.2 µM; in the test with NCI-H460 lung it was 8.23 µM; in the test on NCI-H522 lung, 9.7 µM; with OVCAR-8 ovarian it was 23.3 µM; with TK-10 renal, 15.5 µM; with UACC-257 melanoma, 19 µM. In the test with UO-31 renal, the TGI stood at 32.2 µM.
For `COc1ccc(CC[N+]2(C)COc3cc4oc(=O)cc(C)c4cc3C2)cc1OC` (stereo not given), the TGI with BT-549 breast, in the test with HL-60(TB) leukemia, in the test on IGROV1 ovarian, with K-562 leukemia, in the test on KM12 colon and with MCF7 breast was > 100 µM each time. Also, the TGI is 18 µM in the test with MOLT-4 leukemia; > 100 µM in the test on NCI-H23 lung; > 100 µM with NCI-H522 lung; > 100 µM with OVCAR-8 ovarian; > 100 µM in the test with TK-10 renal; > 100 µM in the test on UACC-257 melanoma. Moreover, in the test with UO-31 renal, the TGI was > 100 µM.
Take `CC(CC=O)Nc1nn2c(=O)c3ccccc3nc2s1` (stereo not given): the TGI with BT-549 breast, in the test on IGROV1 ovarian, in the test with K-562 leukemia, with KM12 colon, in the test on MCF7 breast and with MOLT-4 leukemia was > 100 µM throughout. Further, the TGI in the test on NCI-H23 lung, in the test on NCI-H460 lung, in the test with NCI-H522 lung, in the test with OVCAR-8 ovarian, with TK-10 renal and in the test with UACC-257 melanoma was > 100 µM throughout. The TGI in the test on UO-31 renal came out at 48.1 µM.
For the compound `CC(=O)O[C@H]1C(=O)[C@@]2(C)[C@H]([C@H](OC(=O)c3ccco3)[C@]3(O)C[C@H](OC(=O)[C@H](O)[C@@H](NC(=O)c4ccccc4)c4ccccc4)C(C)=C1C3(C)C)[C@]1(OC(C)=O)CO[C@@H]1C[C@@H]2O`, the TGI was > 25 µM in the test on BT-549 breast; 0.123 µM with HL-60(TB) leukemia; > 25 µM in the test with IGROV1 ovarian; > 25 µM with KM12 colon; > 25 µM with MCF7 breast; > 25 µM in the test on MOLT-4 leukemia. Besides, the TGI was > 25 µM in the test on NCI-H23 lung; > 13 µM in the test on NCI-H460 lung; > 17.2 µM with OVCAR-8 ovarian; > 25 µM in the test on TK-10 renal; > 25 µM in the test with UACC-257 melanoma; > 25 µM with UO-31 renal.
As for `N#Cc1c(N)nc(Sc2ccccc2N)c(C#N)c1-c1ccccc1`, the TGI in the test with BT-549 breast is 95.9 µM; with IGROV1 ovarian, > 100 µM; with K-562 leukemia it was > 100 µM; in the test with KM12 colon, 94.8 µM; with MCF7 breast, 49.8 µM; in the test with MOLT-4 leukemia, > 100 µM. In addition, the TGI in the test with NCI-H23 lung is 63.7 µM; in the test on NCI-H460 lung, 50.6 µM; with OVCAR-8 ovarian, 75 µM; in the test on TK-10 renal it was 34.2 µM; with UACC-257 melanoma it was > 100 µM; with UO-31 renal it was 34.3 µM.
On to `CC(=O)N[C@@H](Cc1ccc(O)cn1)C(=O)NC1CCCCC1`, for which the TGI in the test on BT-549 breast, in the test on IGROV1 ovarian, in the test with K-562 leukemia, in the test with KM12 colon, with MCF7 breast and in the test with MOLT-4 leukemia was > 100 µM in each case. The TGI in the test on NCI-H23 lung, in the test on NCI-H522 lung, with OVCAR-8 ovarian, in the test on TK-10 renal, in the test on UACC-257 melanoma and in the test with UO-31 renal was > 100 µM each time.
On to `Cc1ccc(-n2cc(-c3ccc(Cl)cc3)c3c(=N)n(N)cnc32)cc1`, for which the TGI amounted to 31.7 µM in the test with BT-549 breast; 31.7 µM in the test on HL-60(TB) leukemia; 24.5 µM with IGROV1 ovarian; 47.6 µM in the test with K-562 leukemia; 23.2 µM in the test with MCF7 breast; 30.3 µM with NCI-H23 lung. Moreover, the TGI was 22.2 µM in the test on NCI-H460 lung; 28 µM in the test on NCI-H522 lung; 29.9 µM with OVCAR-8 ovarian; 28.7 µM with TK-10 renal; 21.5 µM with UACC-257 melanoma; 24 µM with UO-31 renal.
With `C=CCN1C(=O)CC(=O)N(NC2=NNC3(C(=O)N2)c2ccccc2-c2ccccc23)C1=S`, the TGI with BT-549 breast was > 100 µM; in the test on HL-60(TB) leukemia it was 66.2 µM; with IGROV1 ovarian, > 100 µM; in the test on K-562 leukemia, > 100 µM; in the test with MCF7 breast it was > 100 µM; in the test on NCI-H23 lung, > 100 µM. Moreover, the TGI with NCI-H460 lung was > 100 µM; in the test with NCI-H522 lung, 96.3 µM; in the test with OVCAR-8 ovarian, > 100 µM; in the test on TK-10 renal it was > 100 µM; in the test on UACC-257 melanoma, > 100 µM; in the test on UO-31 renal, > 100 µM.
With `NC(N)=NCCCC(NC(=O)c1c2ccccc2nc2ccccc12)C(=O)O` (stereo not given), the TGI in the test on BT-549 breast, in the test with IGROV1 ovarian, in the test with K-562 leukemia, in the test with KM12 colon, with MCF7 breast and in the test with MOLT-4 leukemia was > 100 µM throughout. For the same compound, the TGI in the test with NCI-H23 lung, in the test with NCI-H460 lung, in the test on NCI-H522 lung, in the test with OVCAR-8 ovarian, in the test on TK-10 renal and in the test on UACC-257 melanoma was > 100 µM in each case. The TGI in the test with UO-31 renal is > 100 µM.

The values above are taken from PubChem BioAssay (NCI).
